{"source": "patent US20070191299A1", "about": "“Extension Of The Expression of Transgenic Proteins By Immunomodulation” (priority 1997, published 2007)", "key": {"[1]": {"system": "reporter gene β-galactosidase expression in the liver", "assay": "Reporter gene (β-galactosidase) expression in the liver after recombinant adenovirus administration (Example 1)", "format": "in vivo, mice"}, "[2]": {"system": "human alpha 1-antitrypsin reporter gene expression", "assay": "Serum level of human α1-antitrypsin reporter after adenovirus administration (Example 2)", "format": "in vivo", "parameters": "average serum level of human α1-antitrypsin: unit not given here", "conditions": "NMRI mice", "description": "(§1) On day 0, all mice were administered-a dose of 1×10^10 adenoviruses via the tail vein. The recombinant adenoviruses carry the gene for human alpha 1-antitrypsin as a reporter gene found in the serum. This gene has proven to be a practicable reporter, since it is not antigenic in the mouse, but nevertheless can be differentiated from murine alpha 1-antitrypsin using a specific antibody. The half-life of the antiprotease is approximately 3-4 days, so that the serum level reflects the current synthesis capacity of the liver very well.\n(§2) The total collective was subdivided into five groups of 4 animals each, which were treated as follows: • 1st group: control group—no immunosuppressant treatment, administration of saline solution i.p. for the period of 5 days after virus administration. • 2nd . group: FK 506 group—administration of 1 mg/kg/day of FK 506 i.p. beginning 1 day before virus administration and then for a period of 5 days. • 3rd group: cyclosporin A group—administration of 20 mg/kg/day i.p. beginning 1 day before virus administration and then for a period of 5 days. • 4th group: DSG group—administration of 10 mg/kg/day i.p. beginning 1 day before virus administration and then for the period of 5 days. • 5th group: DSG++ group—administration of 10 mg/kg/day i.p. beginning 1 day before virus administration and then daily for the period of five days and then twice weekly for the period of 150 days.\n(§3) NMRI mice were used, since these mice, due to their genetic heterogeneity, develop an immunological reaction pattern which approaches that of a human population more closely than pure inbred strains; the price is an increased variability in the immunological reactivity. In spite of this, the individual groups develop significant reaction patterns."}, "[3]": {"system": "antibodies after recombinant adenovirus vector administration", "assay": "Formation of antibodies after vector administration (Example 1)", "format": "in vivo", "conditions": "mice; cyclosporin A 50-100 mg/kg/day, DSG 10 mg/kg/day for 21 days after recombinant adenovirus", "description": "Cyclosporin A (50-100 mg/kg/day) and DSG (10 mg/kg/day) was administered to the mice over a period of 21 days after administration of a recombinant adenovirus (reporter gene β-galactosidase; Bett et al. Proc. Natl. Acad. Sci. USA, 91 (1994), pages 8802-8806).\nIn the control group, it was possible to detect the formation of antibodies even 5 days after vector administration."}, "[4]": {"system": "antibody load against viral proteins", "assay": "Mean antibody titer against viral proteins after adenovirus administration (Example 2)", "format": "in vivo", "conditions": "NMRI mice", "description": "as §1, §2, §3\nThe quantitative factor 15 days after discontinuing DSG is approximately 1.8. Continuous treatment (2× weekly) is no longer able to increase this effect dramatically. […] Even the transient administration of DSG reduces the antibody response in comparison with the control by more than 60% with, at the same time, a markedly positive effect on expression."}, "[5]": {"conditions": "mice treated with DSG only for 5 days after vector administration, 42nd day after vector administration"}, "[6]": {"conditions": "day 5, i.p. from 1 day before virus then for 5 days (FK 506 1, cyclosporin A 20, DSG 10 mg/kg/day)"}, "[7]": {"conditions": "day 10, i.p. from 1 day before virus then for 5 days (FK 506 1, cyclosporin A 20, DSG 10 mg/kg/day)"}, "[8]": {"conditions": "day 20, i.p. from 1 day before virus then for 5 days (FK 506 1, cyclosporin A 20, DSG 10 mg/kg/day)"}, "[9]": {"conditions": "day 30, DSG++ group: 10 mg/kg/day i.p. from 1 day before virus, daily for five days, then twice weekly for 150 days"}, "[10]": {"conditions": "day 30, i.p. from 1 day before virus then for 5 days (FK 506 1, cyclosporin A 20, DSG 10 mg/kg/day)"}, "[11]": {"conditions": "day 60, i.p. from 1 day before virus then for 5 days (FK 506 1, cyclosporin A 20, DSG 10 mg/kg/day)"}, "[12]": {"conditions": "day 100, DSG++ group: 10 mg/kg/day i.p. from 1 day before virus, daily for five days, then twice weekly for 150 days"}, "[13]": {"conditions": "day 100, i.p. from 1 day before virus then for 5 days (FK 506 1, cyclosporin A 20, DSG 10 mg/kg/day)"}, "[14]": {"conditions": "day 150, DSG++ group: 10 mg/kg/day i.p. from 1 day before virus, daily for five days, then twice weekly for 150 days"}, "[15]": {"conditions": "day 150, i.p. from 1 day before virus then for 5 days (FK 506 1, cyclosporin A 20, DSG 10 mg/kg/day)"}, "[16]": {"conditions": "day 200, DSG++ group: 10 mg/kg/day i.p. from 1 day before virus, daily for five days, then twice weekly for 150 days"}, "[17]": {"conditions": "day 200, i.p. from 1 day before virus then for 5 days (FK 506 1, cyclosporin A 20, DSG 10 mg/kg/day)"}}}
{"smiles": "Cl.Cl.Cl.N=C(N)NCCCCCCC(=O)NC(O)C(=O)NCCCCNCCCN", "note": "(stereo not shown) [DSG, 1-amino-19-guanidine-11-hydroxy-4,9,12-triazanondecane-10,13-dione trihydrochloride]", "values": [{"measurement": "proportion of animals with expression still measurable", "setting": "[1]; [5]", "result": "approximately 50%"}, {"measurement": "reporter gene expression relative to the maximal expression", "setting": "[1]; [5]", "result": "approximately 10%"}, {"measurement": "reporter gene expression after discontinuing the immunosuppressants", "setting": "[1]; mice, 21 days after discontinuing 21-day treatment (42 days after vector administration)", "result": "a massive gene expression was still detectable"}, {"measurement": "reporter gene expression in the liver over the treatment period", "setting": "[1]; mice, cyclosporin A 50-100 mg/kg/day, DSG 10 mg/kg/day for 21 days after recombinant adenovirus, treatment period of 21 days", "result": "continues undecreased"}, {"measurement": "effect on antitrypsin expression", "setting": "[2]; 5-day treatment with DSG", "result": "marked increase and prolongation of antitrypsin expression"}, {"measurement": "quantitative factor (transgenic expression product of immunosuppressed group / nonimmunosuppressed control group)", "setting": "[2]; 15 days after discontinuing DSG (5-day treatment, 10 mg/kg/day i.p.)", "result": "approximately 1.8"}, {"measurement": "expression with continuous treatment compared with transient administration", "setting": "[2]; continuous DSG treatment (2× weekly) versus transient administration", "result": "only slightly increased"}, {"measurement": "average serum level of human α1-antitrypsin", "setting": "[2]; day 5, DSG++ group: 10 mg/kg/day i.p. from 1 day before virus, daily for five days, then twice weekly for 150 days", "result": 2775000}, {"measurement": "average serum level of human α1-antitrypsin", "setting": "[2]; [6]", "result": 2775000}, {"measurement": "average serum level of human α1-antitrypsin", "setting": "[2]; day 10, DSG++ group: 10 mg/kg/day i.p. from 1 day before virus, daily for five days, then twice weekly for 150 days", "result": 677500}, {"measurement": "average serum level of human α1-antitrypsin", "setting": "[2]; [7]", "result": 1560000}, {"measurement": "average serum level of human α1-antitrypsin", "setting": "[2]; day 20, DSG++ group: 10 mg/kg/day i.p. from 1 day before virus, daily for five days, then twice weekly for 150 days", "result": 1178750}, {"measurement": "average serum level of human α1-antitrypsin", "setting": "[2]; [8]", "result": 1826250}, {"measurement": "average serum level of human α1-antitrypsin", "setting": "[2]; [9]", "result": 1082500}, {"measurement": "average serum level of human α1-antitrypsin", "setting": "[2]; [10]", "result": 1001250}, {"measurement": "average serum level of human α1-antitrypsin", "setting": "[2]; day 60, DSG++ group: 10 mg/kg/day i.p. from 1 day before virus, daily for five days, then twice weekly for 150 days", "result": 297500}, {"measurement": "average serum level of human α1-antitrypsin", "setting": "[2]; [11]", "result": 213500}, {"measurement": "average serum level of human α1-antitrypsin", "setting": "[2]; [12]", "result": 68750}, {"measurement": "average serum level of human α1-antitrypsin", "setting": "[2]; [13]", "result": 51750}, {"measurement": "average serum level of human α1-antitrypsin", "setting": "[2]; [14]", "result": 17125}, {"measurement": "average serum level of human α1-antitrypsin", "setting": "[2]; [15]", "result": 13125}, {"measurement": "average serum level of human α1-antitrypsin", "setting": "[2]; [16]", "result": 14350}, {"measurement": "average serum level of human α1-antitrypsin", "setting": "[2]; [17]", "result": 10625}, {"measurement": "antibody production", "setting": "[3]", "result": "completely eliminated"}, {"measurement": "reduction of antibody load against viral proteins", "setting": "[4]; continuous DSG treatment (2× weekly), after 150 days", "result": "approximately 90%"}, {"measurement": "Mean antibody titer", "setting": "[4]; [9]", "result": 13005}, {"measurement": "Mean antibody titer", "setting": "[4]; [10]", "result": 26310}, {"measurement": "Mean antibody titer", "setting": "[4]; [12]", "result": 11251}, {"measurement": "Mean antibody titer", "setting": "[4]; [13]", "result": 31029}, {"measurement": "Mean antibody titer", "setting": "[4]; [14]", "result": 7335}, {"measurement": "Mean antibody titer", "setting": "[4]; [15]", "result": 25149}, {"measurement": "Mean antibody titer", "setting": "[4]; [16]", "result": 9669}, {"measurement": "Mean antibody titer", "setting": "[4]; [17]", "result": 20586}, {"measurement": "reduction of antibody response in comparison with the control", "setting": "[4]; transient administration of DSG (5 days)", "result": "more than 60%"}]}
{"smiles": "C=CC[C@@H]1/C=C(\\C)C[C@H](C)C[C@H](OC)[C@H]2O[C@@](O)(C(=O)C(=O)N3CCCC[C@H]3C(=O)O[C@H](/C(C)=C/[C@@H]3CC[C@@H](O)[C@H](OC)C3)[C@H](C)[C@@H](O)CC1=O)[C@H](C)C[C@@H]2OC", "note": "[FK 506]", "values": [{"measurement": "average serum level of human α1-antitrypsin", "setting": "[2]; [6]", "result": 1725000}, {"measurement": "average serum level of human α1-antitrypsin", "setting": "[2]; [7]", "result": 1278750}, {"measurement": "average serum level of human α1-antitrypsin", "setting": "[2]; [8]", "result": 376250}, {"measurement": "average serum level of human α1-antitrypsin", "setting": "[2]; [10]", "result": 17475}, {"measurement": "average serum level of human α1-antitrypsin", "setting": "[2]; [11]", "result": 4258}, {"measurement": "average serum level of human α1-antitrypsin", "setting": "[2]; [13]", "result": 313}, {"measurement": "average serum level of human α1-antitrypsin", "setting": "[2]; [15]", "result": 1.5}, {"measurement": "average serum level of human α1-antitrypsin", "setting": "[2]; [17]", "result": 1.5}, {"measurement": "Mean antibody titer", "setting": "[4]; [10]", "result": 65536}, {"measurement": "Mean antibody titer", "setting": "[4]; [13]", "result": 43832}, {"measurement": "Mean antibody titer", "setting": "[4]; [15]", "result": 25149}, {"measurement": "Mean antibody titer", "setting": "[4]; [17]", "result": 17710}]}
